Patent US11364248B2 (AMGEN INC., priority 2017, dated 2022)

test system: OPM-2; assay: Cell Viability Assay (OPM-2 10 FBS); assay type: cell-based, human; conditions: OPM-2 cells, 16 h, CellTiter-Glo, read-out: OPM-2 10% FBS IC50 IP
Procedure: Cell Viability Assay (OPM-2 10 FBS)
The human multiple myeloma cell line, OPM-2, was cultured in complete growth medium containing RPMI 1640 and 10% fetal bovine serum (FBS). Cells were seeded into 384-well plates at 3000 cells/well density in complete growth medium containing 10% FBS, and incubated for 16 h with serially diluted test compounds in a 37° C. incubator with 5% CO2. Cell viability was tested using CellTiter-Glo® assay (Promega, Madison, Wis.) according to the manufacturer recommendations. Luminescence was determined using an EnVision® Multilabel plate reader 25 min after the addition of detection reagent. IC50 values were then calculated with Xlfit using a logistical 4-parameter fit model in GraphPad Prism (GraphPad Software, San Diego, Calif.) or in Genedata Screener® (Genedata, Basel, Switzerland).

For `COCC[C@@H]1[C@@H](C)CCC[C@H]([C@H]2OC[C@@H](N(C)C)CO2)[C@@H]2CC[C@H]2CN2C[C@@]3(CCCc4cc(Cl)ccc43)COc3ccc(cc32)C(=O)NS1(=O)=O` (stereo in doubt) [Example 83], which IC50 is on record?
The IC50 was 0.54 µM.

With `C[C@@H]1[C@@H](C)CCC[C@H]([C@H]2OC[C@@H](N(C)C)CO2)[C@@H]2CC[C@H]2CN2C[C@@]3(CCCc4cc(Cl)ccc43)COc3ccc(nc32)C(=O)NS1(=O)=O` (stereo in doubt) [Example 93, (1S,3′R,6′R,7′S,11′S,12′R)-6-chloro-7′-(cis-5-(dimethylamino)-1,3-dioxan-2-yl)-11′,12′-dimethyl-3,4-dihydro-2H,15′H-spiro[naphthalene-1,22′-[20]oxo[13]thia[1,14,25]triazatetracyclo [14.7.2.0~3,6~.0~19,24~]pentacosa[16,18,24]trien]-15′-one 13′,13′-dioxide] as the molecule, how does the IC50 read?
The IC50 was 0.034 µM.

`C[C@@H]1[C@@H](C)CCC[C@H]([C@H]2OC[C@@H](N(C)C)CO2)[C@@H]2CC[C@H]2CN2C[C@@]3(CCCc4cc(Cl)ccc43)COc3ccc(nc32)C(=O)NS1(=O)=O` (stereo in doubt) [Example 94] was tested. Which IC50 did it give?
The IC50 was 0.257 µM.

With `C[C@@H]1[C@@H](C)CCC[C@H]([C@H]2OC[C@@H](N(C)C)CO2)[C@@H]2CC[C@H]2CN2C[C@@]3(CCCc4cc(Cl)ccc43)COc3ccc(nc32)C(=O)NS1(=O)=O` (stereo in doubt) [Example 95] as the molecule, how does the IC50 read?
Its IC50 is 0.108 µM.

With `C[C@@H]1[C@@H](C)CCC[C@H]([C@H]2OC[C@@H](N3CCC3)CO2)[C@@H]2CC[C@H]2CN2C[C@@]3(CCCc4cc(Cl)ccc43)COc3ccc(cc32)C(=O)NS1(=O)=O` [Example 20, (1S,3′R,6′R,7′S,11′S,12′R)-7′-(cis-5-(1-azetidinyl)-1,3-dioxan-2-yl)-6-chloro-11′,12′-dimethyl-3,4-dihydro-2H,15′H-spiro[naphthalene-1,22′-[20]oxa[13]thia[1,14]diazatetracyclo [14.7.2.0~3,6~.0~19,24~]pentacosa[16,18,24]trien]-15′-one 13′,13′-dioxide] as the molecule, how does the IC50 read?
Its IC50 is 0.041 µM.

`C[C@@H]1[C@@H](C)CCC[C@H]([C@H]2OC[C@@H](N3CCC3)CO2)[C@@H]2CC[C@H]2CN2C[C@@]3(CCCc4cc(Cl)ccc43)COc3ccc(cc32)C(=O)NS1(=O)=O` [Example 21, (1S,3′R,6′R,7′S,11′S,12′R)-7′-(cis-5-(1-azetidinyl)-1,3-dioxan-2-yl)-6-chloro-11′,12′-dimethyl-3,4-dihydro-2H,15′H-spiro[naphthalene-1,22′-[20]oxa[13]thia[1,14]diazatetracyclo [14.7.2.0~3,6~.0~19,24~]pentacosa[16,18,24]trien]-15′-one 13′,13′-dioxide] was tested. Which IC50 did it give?
The IC50 was 0.521 µM.

For `C[C@@H]1[C@@H](C)CCC[C@H]([C@H]2OC[C@@H](N3CC(F)(F)C3)CO2)[C@@H]2CC[C@H]2CN2C[C@@]3(CCCc4cc(Cl)ccc43)COc3ccc(cc32)C(=O)NS1(=O)=O` [Example 31, (1S,3′R,6′R,7′S,11′S,12′R)-6-chloro-7′-(cis-5-(3,3-difluoro-1-azetidinyl)-1,3-dioxan-2-yl)-11′,12′-dimethyl-3,4-dihydro-2H,15′H-spiro[naphthalene-1,22′-[20]oxa[13]thia[1,14]diazatetracyclo [14.7.2.0~3,6~.0~19,24~]pentacosa[16,18,24]trien]-15′-one 13′,13′-dioxide], which IC50 is on record?
Its IC50 is 0.204 µM.

With `C[C@@H]1[C@@H](C)CCC[C@H]([C@H]2OC[C@@H](N3CC(F)(F)C3)CO2)[C@@H]2CC[C@H]2CN2C[C@@]3(CCCc4cc(Cl)ccc43)COc3ccc(cc32)C(=O)NS1(=O)=O` [Example 32, (1S,3′R,6′R,7′S,11′S,12′R)-6-chloro-7′-(cis-5-(3,3-difluoro-1-azetidinyl)-1,3-dioxan-2-yl)-11′,12′-dimethyl-3,4-dihydro-2H,15′H-spiro[naphthalene-1,22′-[20]oxa[13]thia[1,14]diazatetracyclo [14.7.2.0~3,6~.0~19,24~]pentacosa[16,18,24]trien]-15′-one 13′,13′-dioxide] as the molecule, how does the IC50 read?
Its IC50 is 1.94 µM.
